The values that follow come from patent US20250230193A1, “CYCLIC COMPOUND HAVING SELECTIVE KRAS INHIBITORY EFFECT ON HRAS AND NRAS” (CHUGAI SEIYAKU KABUSHIKI KAISHA, priority 2022, published 2025).

Read-outs that look alike come from different tables or passages of the source. *1 amine or outer side, *2 acyl side, *3 side chain or, on linkers, in order; H or OH if unused. Where a SMILES comes first, the peptide text is derived from it. Bridges are numbered along the chain shown (N, C = ends). [ ]: non-standard residue; d: D form. The star is where a group is joined. X6 = CC(C)(C)CCN([C@@H](Cc1ccc(C(F)(F)F)cc1)C(=O)[*:2])[*:1]; dhPhe(3-Cl,4-CF3) = N[C@H](CCc1ccc(C(F)(F)F)c(Cl)c1)C(=O)O; hPhe(3-Cl-4-CF3) = N[C@@H](CCc1ccc(C(F)(F)F)c(Cl)c1)C(=O)O; X3 = C=CCN([C@H](Cc1ccccc1)C(=O)[*:2])[*:1]; X5 = CCCN([C@H](C(=O)[*:2])C1CCCC1)[*:1]; NMeGly(cPent) = CN[C@H](C(=O)O)C1CCCC1; NMeNle(5-ene) = C=CCC[C@H](NC)C(=O)O; NMeD = CN[C@@H](CC(=O)O)C(=O)O; NMeL = CN[C@@H](CC(C)C)C(=O)O; Morpholide = C1CN(*)CCO1; NMeA = CN[C@@H](C)C(=O)O; Ac5c = NC1(C(=O)O)CCCC1; Aze = O=C(O)[C@@H]1CCN1; Sar = CNCC(=O)O

Assay [1] deals with GDP-bound NRAS wild-type protein (Homo sapiens, UniProt P01111). The experiment in a line: Binding to NRAS by surface plasmon resonance (SPR), Single Cycle Kinetics. Conditions: SPR; for NRAS/KRAS (ratio of KD value for GDP-bound NRAS wild-type protein to KD value for KRAS): KD ratio class. A general note: Surface plasmon resonance follows binding to a sensor surface in real time, without labels.

The target in assay [2] is GDP-bound HRAS wild-type protein (Homo sapiens, UniProt P01112). The experiment in a line: Binding to HRAS by surface plasmon resonance (SPR), Single Cycle Kinetics. The following applies: SPR; for HRAS/KRAS (ratio of KD value for GDP-bound HRAS wild-type protein to KD value for KRAS): KD ratio class.
For assay [3], the system named is human lung cancer strain NCI-H441.
For assay [4] the test system is unchanged. The experiment in a line: cells. Conditions: NCI-H441, 96 h, read-out: NCI-H441 IC50 (nM).
Where [5] appears, read: read-out: NCI-H441 IC50, NCI-H441 cells, 4 days, CellTiter-Glo.

Chain of GDP-bound NRAS wild-type protein (P01111 whole entry): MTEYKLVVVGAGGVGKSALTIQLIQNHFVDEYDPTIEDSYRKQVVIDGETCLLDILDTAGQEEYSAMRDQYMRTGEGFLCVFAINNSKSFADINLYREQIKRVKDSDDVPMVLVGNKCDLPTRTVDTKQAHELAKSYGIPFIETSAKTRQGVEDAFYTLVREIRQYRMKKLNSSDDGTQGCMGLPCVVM
Chain of GDP-bound HRAS wild-type protein (P01112 whole entry): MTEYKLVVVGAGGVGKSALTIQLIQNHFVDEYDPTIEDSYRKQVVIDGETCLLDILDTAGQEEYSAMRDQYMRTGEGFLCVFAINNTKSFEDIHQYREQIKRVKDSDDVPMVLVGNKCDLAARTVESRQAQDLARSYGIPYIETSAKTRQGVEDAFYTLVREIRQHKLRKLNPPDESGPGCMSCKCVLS

For the molecule `CCCN1C(=O)[C@@H]2CCN2C(=O)[C@H](C)N(C)C(=O)[C@H]([C@@H](C)CC)NC(=O)[C@H](CC(C)C)N(C)C(=O)C[C@@H](C(=O)N2CCOCC2)N(C)C(=O)[C@H](C2CCCC2)N(C)C(=O)C2(CCCC2)NC(=O)[C@@H]2CCCN2C(=O)[C@H](CCc2ccc(C(F)(F)F)c(Cl)c2)NC(=O)CN(C)C(=O)[C@@H]1C1CCCC1` [PP0054] ([NMeL]I[NMeA][Aze][X5][Sar][hPhe(3-Cl-4-CF3)]P[Ac5c][NMeGly(cPent)][NMeD]-Morpholide; lactam N-11), in assay [1], the “NRAS/KRAS (ratio of KD for GDP-bound NRAS wild-type to KD for KRAS)” value was “C (A compound having a KD ratio of 0.1 or more and less than 3 is denoted as C)”. In addition, the “HRAS/KRAS (ratio of KD for GDP-bound HRAS wild-type to KD for KRAS)” value in assay [2] is “C (A compound having a KD ratio of 0.1 or more and less than 3 is denoted as C)”. Further, in assay [3] (setting [5]), the IC50 was 82 nM.
On to `CC[C@H](C)[C@@H]1NC(=O)[C@H](CC(C)C)N(C)C(=O)C[C@@H](C(=O)N2CCOCC2)N(C)C(=O)[C@H](C2CCCC2)N(C)C(=O)C2(CCCC2)NC(=O)[C@@H]2CCCN2C(=O)[C@H](CCc2ccc(C(F)(F)F)c(Cl)c2)NC(=O)CN(C)C(=O)[C@H](Cc2ccc(C(F)(F)F)cc2)N(CCC(C)(C)C)C(=O)CN(C)C(=O)CN(C)C1=O` [PP0127] ([NMeL]I[Sar][Sar][X6][Sar][hPhe(3-Cl-4-CF3)]P[Ac5c][NMeGly(cPent)][NMeD]-Morpholide; lactam N-11), for which, in assay [1], the “NRAS/KRAS (ratio of KD for GDP-bound NRAS wild-type to KD for KRAS)” value was “C (A compound having a KD ratio of 0.1 or more and less than 3 is denoted as C)”. Besides, the “HRAS/KRAS (ratio of KD for GDP-bound HRAS wild-type to KD for KRAS)” value in assay [2] was “C (A compound having a KD ratio of 0.1 or more and less than 3 is denoted as C)”. Further, half-maximal inhibition in assay [3] (IC50) was put at 25.3 nM.
On to `C=CCC[C@H]1C(=O)N(CC=C)[C@H](Cc2ccccc2)C(=O)N(C)CC(=O)N[C@H](CCc2ccc(C(F)(F)F)c(Cl)c2)C(=O)N2CCC[C@H]2C(=O)NC2(CCCC2)C(=O)N(C)[C@@H](C2CCCC2)C(=O)N(C)[C@H](C(=O)N2CCOCC2)CC(=O)N(C)[C@@H](CC(C)C)C(=O)N[C@@H]([C@@H](C)CC)C(=O)N(C)CC(=O)N1C` [PP0599] ([NMeL]I[Sar][NMeNle(5-ene)][X3][Sar][dhPhe(3-Cl,4-CF3)]P[Ac5c][NMeGly(cPent)][NMeD]-Morpholide; lactam N-11), for which the “NRAS/KRAS (ratio of KD value with respect to GDP-bound NRAS wild-type protein to KD value with respect to KRAS)” value in assay [1] is “C (A compound having a KD ratio of 0.1 or more and less than 3 is denoted as C)”. For the same molecule, the “HRAS/KRAS (ratio of KD value with respect to GDP-bound HRAS wild-type protein to KD value with respect to KRAS)” value in assay [2] is “B (a compound having 3 or more and less than 10 is denoted as B)”. Besides, the concentration for half-maximal inhibition (IC50) in assay [3] was found to be 2800 nM.
On to `CC[C@H](C)C1NC(=O)[C@H](CC(C)C)N(C)C(=O)C[C@@H](C(=O)N(C)C)N(C)C(=O)[C@H](C2CCCC2)N(C)C(=O)C2(CCCC2)NC(=O)C2CCCN2C(=O)[C@@H](CCc2ccc(C(F)(F)F)c(Cl)c2)NC(=O)CN(C)C(=O)[C@@H](Cc2ccc(C)cc2)N2CC/C=C\CCN(CC2=O)C(=O)CN(C)C1=O` (some centres unmarked) [PP0618], for which the “NRAS/KRAS (ratio of KD value with respect to GDP-bound NRAS wild-type protein to KD value with respect to KRAS)” value in assay [1] was “C (A compound having a KD ratio of 0.1 or more and less than 3 is denoted as C)”. Moreover, in assay [2], the “HRAS/KRAS (ratio of KD value with respect to GDP-bound HRAS wild-type protein to KD value with respect to KRAS)” value is “C (A compound having a KD ratio of 0.1 or more and less than 3 is denoted as C)”. The IC50 in assay [3] amounted to 79.1 nM.
Regarding `CC[C@H](C)[C@@H]1NC(=O)[C@H](CC(C)C)N(C)C(=O)C[C@@H](C(=O)N(C)C)N(C)C(=O)[C@H](C2CCCC2)N(C)C(=O)C2(CCCC2)NC(=O)C2CCCN2C(=O)[C@H](CCc2ccc(C(F)(F)F)c(Cl)c2)NC(=O)CN(C)C(=O)[C@H](Cc2ccc(C(F)(F)F)cc2)N2CC/C=C\COC[C@@H](C2=O)N(C)C(=O)CN(C)C1=O` (some centres unmarked) [PP0622], in assay [1], the “NRAS/KRAS (ratio of KD value with respect to GDP-bound NRAS wild-type protein to KD value with respect to KRAS)” value is “B (a compound having 3 or more and less than 10 is denoted as B)”. Besides, the “HRAS/KRAS (ratio of KD value with respect to GDP-bound HRAS wild-type protein to KD value with respect to KRAS)” value in assay [2] is “B (a compound having 3 or more and less than 10 is denoted as B)”. The molecule further returned an IC50 in assay [3] of 330 nM.
`CC[C@H](C)[C@@H]1NC(=O)[C@H](CC(C)C)N(C)C(=O)C[C@@H](C(=O)N(C)C)N(C)C(=O)[C@H](C2CCCC2)N(C)C(=O)C2(CCCC2)NC(=O)[C@@H]2CCCN2C(=O)[C@H](CCc2ccc(C(F)(F)F)c(Cl)c2)NC(=O)CN(C)C(=O)[C@H](Cc2ccc(C)cc2)N2C/C=C\COC[C@@H](C2=O)N(C)C(=O)CN(C)C1=O` [PP0627]: 98.3 nM corresponded to half-maximal inhibition in assay [3] (IC50).
On to `CCO[C@@H]1C[C@H]2C(=O)NC3(CCC3)C(=O)N(C)[C@@H](C3CCCC3)C(=O)N(C)[C@@H](C(C)C)CC(=O)N(C)[C@@H](CC3CC3)C(=O)N[C@@H]([C@@H](C)CC)C(=O)N(C)CC(=O)N(C)[C@H]3C/C=C\CCN(C3=O)[C@@H](Cc3ccc(C(F)(F)F)cc3)C(=O)N(C)CC(=O)N[C@@H](CCc3cc(F)c(C(F)(F)F)c(F)c3)C(=O)N2C1` [PP1596], for which the IC50 in assay [3] (setting [5]) is 18.1 nM.
Consider `CCO[C@@H]1C[C@H]2C(=O)NC3(CC(C)(C)C3)C(=O)N(C)[C@@H](C3CCCC3)C(=O)N(C)[C@H](C(C)C)CC(=O)N(C)[C@@H](CC)C(=O)N[C@@H]([C@@H](C)CC)C(=O)N(C)CC(=O)N(C)[C@H]3C/C=C\CCN(C3=O)[C@@H](CC3CCCCC3)C(=O)N(C)CC(=O)N[C@@H](CCc3cc(F)c(C(F)(F)F)c(F)c3)C(=O)N2C1` [PP1603], for which the “NRAS/KRAS (ratio of KD value for GDP-bound NRAS wild-type protein to KD value for KRAS)” value in assay [1] is “B (a compound having 3 or more and less than 10 is denoted as B)”. Moreover, the “HRAS/KRAS (ratio of KD value for GDP-bound HRAS wild-type protein to KD value for KRAS)” value in assay [2] was “B (a compound having 3 or more and less than 10 is denoted as B)”. In assay [4], the IC50 is 132 nM.
With `CCO[C@@H]1C[C@H]2C(=O)NC3(CC(C)(C)C3)C(=O)N(C)[C@@H](C(CC)CC)C(=O)N3CCC[C@@H]3CC(=O)N(C)[C@@H](CC)C(=O)N[C@@H]([C@@H](C)CC)C(=O)N(C)CC(=O)N(C)[C@H]3C/C=C\CCN(C3=O)[C@@H](Cc3ccc(C(F)(F)F)cc3)C(=O)N(C)CC(=O)N[C@@H](CCc3cc(F)c(C(F)(F)F)c(F)c3)C(=O)N2C1` [PP1605], the “NRAS/KRAS (ratio of KD value for GDP-bound NRAS wild-type protein to KD value for KRAS)” value in assay [1] is “A (a compound having 10 or more and less than 20 is denoted as A)”. The “HRAS/KRAS (ratio of KD value for GDP-bound HRAS wild-type protein to KD value for KRAS)” value in assay [2] is “A (a compound having 10 or more and less than 20 is denoted as A)”. In addition, the IC50 in assay [4] was found to be 31.6 nM.
Take `CCO[C@@H]1C[C@H]2C(=O)NC3(CC(C)(C)C3)C(=O)N(C)[C@@H](C3CCCC3)C(=O)N3CCC[C@@H]3CC(=O)N(C)[C@@H](CC)C(=O)N[C@@H]([C@@H](C)CC)C(=O)N(C)CC(=O)N(C)[C@H]3C/C=C\CCN(C3=O)[C@@H](Cc3ccc(C(F)(F)F)cc3)C(=O)N(C)CC(=O)N[C@@H](CCc3cc(F)c(C(F)(F)F)c(F)c3)C(=O)N2C1` [PP1606]: the “NRAS/KRAS (ratio of KD value for GDP-bound NRAS wild-type protein to KD value for KRAS)” value in assay [1] is “B (a compound having 3 or more and less than 10 is denoted as B)”. For the same molecule, the “HRAS/KRAS (ratio of KD value for GDP-bound HRAS wild-type protein to KD value for KRAS)” value in assay [2] was “B (a compound having 3 or more and less than 10 is denoted as B)”. In assay [4], the IC50 was determined as 12.6 nM.

By IC50 is commonly meant the concentration needed to halve the response being measured.
